The NIST ThermoML archive (doi:10.1016/j.jct.2011.08.016)

Test: xn = mol fraction of the nth substance listed
Settings: Liquid, Vibrating tube method

CCCCCCCCCC [decane] + CCCCCCCC
Settings | mass density [kg/m3]
313.19 K, 10000 kPa, x2 = 0.5314 | 710.43
313.19 K, 10000 kPa, x2 = 0.7736 | 703.28
313.19 K, 10990 kPa, x2 = 0.5314 | 711.26
313.19 K, 10990 kPa, x2 = 0.7736 | 704.16
313.19 K, 12000 kPa, x2 = 0.5314 | 712.06
313.19 K, 12000 kPa, x2 = 0.7736 | 705
313.19 K, 13000 kPa, x2 = 0.5314 | 712.86
313.19 K, 13000 kPa, x2 = 0.7736 | 705.81
313.19 K, 14000 kPa, x2 = 0.5314 | 713.65
313.19 K, 14000 kPa, x2 = 0.7736 | 706.63
313.19 K, 15000 kPa, x2 = 0.5314 | 714.44
313.19 K, 15000 kPa, x2 = 0.7736 | 707.47
313.19 K, 16000 kPa, x2 = 0.5314 | 715.21
313.19 K, 16000 kPa, x2 = 0.7736 | 708.28
313.19 K, 17000 kPa, x2 = 0.5314 | 715.97
313.19 K, 17000 kPa, x2 = 0.7736 | 709.1
313.19 K, 18000 kPa, x2 = 0.5314 | 716.73
313.19 K, 18000 kPa, x2 = 0.7736 | 709.83
313.19 K, 19000 kPa, x2 = 0.5314 | 717.47
313.19 K, 19000 kPa, x2 = 0.7736 | 710.61
313.19 K, 20000 kPa, x2 = 0.5314 | 718.2
313.19 K, 20000 kPa, x2 = 0.7736 | 711.34
313.19 K, 21000 kPa, x2 = 0.5314 | 718.89
313.19 K, 21000 kPa, x2 = 0.7736 | 712.07
313.19 K, 22000 kPa, x2 = 0.5314 | 719.56
313.19 K, 22000 kPa, x2 = 0.7736 | 712.79
313.19 K, 23000 kPa, x2 = 0.5314 | 720.23
313.19 K, 23000 kPa, x2 = 0.7736 | 713.47
313.19 K, 24000 kPa, x2 = 0.5314 | 720.88
313.19 K, 24000 kPa, x2 = 0.7736 | 714.14
313.19 K, 25000 kPa, x2 = 0.5314 | 721.52
313.19 K, 25000 kPa, x2 = 0.7736 | 714.77
323.13 K, 1000 kPa, x2 = 0.2801 | 701.5
323.13 K, 2000 kPa, x2 = 0.2801 | 702.42
323.13 K, 3000 kPa, x2 = 0.2801 | 703.33
323.13 K, 4000 kPa, x2 = 0.2801 | 704.26
323.13 K, 5000 kPa, x2 = 0.2801 | 705.16
323.13 K, 6000 kPa, x2 = 0.2801 | 706.06
323.13 K, 7000 kPa, x2 = 0.2801 | 706.95
323.13 K, 8000 kPa, x2 = 0.2801 | 707.83
323.13 K, 9000 kPa, x2 = 0.2801 | 708.7
323.13 K, 10000 kPa, x2 = 0.2801 | 709.57
323.13 K, 10990 kPa, x2 = 0.2801 | 710.5
323.13 K, 12000 kPa, x2 = 0.2801 | 711.29
323.13 K, 13000 kPa, x2 = 0.2801 | 712.12
323.13 K, 14000 kPa, x2 = 0.2801 | 712.97
323.13 K, 15000 kPa, x2 = 0.2801 | 713.78
323.13 K, 16000 kPa, x2 = 0.2801 | 714.58
323.13 K, 17000 kPa, x2 = 0.2801 | 715.38
323.13 K, 18000 kPa, x2 = 0.2801 | 716.14
323.13 K, 19000 kPa, x2 = 0.2801 | 716.9
323.13 K, 20000 kPa, x2 = 0.2801 | 717.66
323.13 K, 21000 kPa, x2 = 0.2801 | 718.38
323.13 K, 22000 kPa, x2 = 0.2801 | 719.06
323.13 K, 23000 kPa, x2 = 0.2801 | 719.71
323.13 K, 24000 kPa, x2 = 0.2801 | 720.38
323.13 K, 25000 kPa, x2 = 0.2801 | 721
323.15 K, 1000 kPa, x2 = 0.5314 | 694.85
323.15 K, 1000 kPa, x2 = 0.7736 | 687.38
323.15 K, 1000 kPa, x2 = 0.9623 | 680.8
323.15 K, 2000 kPa, x2 = 0.5314 | 695.78
323.15 K, 2000 kPa, x2 = 0.7736 | 688.41
323.15 K, 2000 kPa, x2 = 0.9623 | 681.8
323.15 K, 3000 kPa, x2 = 0.5314 | 696.73
323.15 K, 3000 kPa, x2 = 0.7736 | 689.33
323.15 K, 3000 kPa, x2 = 0.9623 | 682.74
323.15 K, 4000 kPa, x2 = 0.5314 | 697.62
323.15 K, 4000 kPa, x2 = 0.7736 | 690.27
323.15 K, 4000 kPa, x2 = 0.9623 | 683.68
323.15 K, 5000 kPa, x2 = 0.5314 | 698.58
323.15 K, 5000 kPa, x2 = 0.7736 | 691.21
323.15 K, 5000 kPa, x2 = 0.9623 | 684.65
323.15 K, 6000 kPa, x2 = 0.5314 | 699.53
323.15 K, 6000 kPa, x2 = 0.7736 | 692.18
323.15 K, 6000 kPa, x2 = 0.9623 | 685.6
323.15 K, 7000 kPa, x2 = 0.5314 | 700.45
323.15 K, 7000 kPa, x2 = 0.7736 | 693.12
323.15 K, 7000 kPa, x2 = 0.9623 | 686.57
323.15 K, 8000 kPa, x2 = 0.5314 | 701.36
323.15 K, 8000 kPa, x2 = 0.7736 | 694.08
323.15 K, 8000 kPa, x2 = 0.9623 | 687.54
323.15 K, 9000 kPa, x2 = 0.5314 | 702.24
323.15 K, 9000 kPa, x2 = 0.7736 | 694.99
323.15 K, 9000 kPa, x2 = 0.9623 | 688.5
323.15 K, 10000 kPa, x2 = 0.5314 | 703.12
323.15 K, 10000 kPa, x2 = 0.7736 | 695.89
323.15 K, 10000 kPa, x2 = 0.9623 | 689.46
323.15 K, 10990 kPa, x2 = 0.5314 | 703.99
323.15 K, 10990 kPa, x2 = 0.7736 | 696.8
323.15 K, 10990 kPa, x2 = 0.9623 | 690.4
323.15 K, 12000 kPa, x2 = 0.5314 | 704.86
323.15 K, 12000 kPa, x2 = 0.7736 | 697.73
323.15 K, 12000 kPa, x2 = 0.9623 | 691.34
323.15 K, 13000 kPa, x2 = 0.5314 | 705.72
